Measurements from patent EP4635969A1, “NOVEL GLUCOCORTICOID, METHOD FOR PREPARING SAME, AND USE THEREOF” (Tianjin Pharmaceutical Biotechnology Co., Ltd., priority 2022, dated 2024).
pEC50: −log10 of the molar value.

Columns and labels:
asthma model mice = experiment: Anti-asthma pharmacodynamic experiment: airway hyperresponsiveness (Penh) after methacholine challenge; format: in vivo, female BALB/c mice; details: compared with the model group
Procedure: Pharmacological Example 4: Pharmacodynamic Experiment on Anti-Asthma
The suspensions were stored at room temperature protected from light until use.
Positive control drug: Budesonide Suspension for Inhalation (specification: 2 mL: 1 mg; AstraZeneca Inc.; Lot No. : 327392) was diluted with injection-grade sodium chloride solution to 0.3 mg/ml as the positive control drug, and stored at room temperature protected from light until use.
Sixty female BALB/c mice underwent a one-week adaptive feeding period. Ten mice were randomly selected as the blank control group, while 50 mice were selected to establish asthma models.
From days 21 to 23 after sensitization, the mice in the model group and drug administration group were exposed to a 30-minute aerosol challenge with 5% OVA, while the mice in the blank control group were exposed to normal saline aerosol for the same duration.
Airway responsiveness was measured in all groups of mice after the last challenge. The mice were placed into a plethysmography chamber, and baseline Penh values were recorded. Subsequently, the mice were challenged with aerosolized methacholine at concentrations from low to high of 0, 6.25, and 12.5 mg/mL, with an aerosol volume of 100 µ L each time for 60 s. […] Penh values were then recorded for 3 min and averaged to compare the airway responsiveness of each group of mice.
Statistical analysis was performed using SPSS software. Measurement data were expressed as mean ± standard deviation. One-way ANOVA was used for intergroup comparisons. For data with homogeneous variance, LSD test was used; for data with heterogeneous variance, Dunnett-t test was used. A value of P < 0.05 was considered statistically significant.

[1] = Determination of stability in plasma in vitro, human plasma (LC-MS/MS); format: in vitro ADME; details: same experimental conditions (human and mouse plasma)
Procedure: Pharmacological Example 3: Determination of Stability in Plasma in Vitro
The stock solution was diluted with acetonitrile to obtain a working solution at a concentration of 100 µ M. The solution should be freshly prepared prior to use and maintained at room temperature during application.
990 µ L of human and mouse plasma (N = 2) were separately pipetted and pre-incubated at 37 °C for 5 min. Then, 10 µ L of the test compound working solution was added and vortexed thoroughly (the final concentration of the test compound was 1 µ M). Immediately, 50 µ L of the plasma sample was added to 150 µ L of ice-cold precipitation agent containing the internal standard and vortexed thoroughly as the 0-time sample. The remaining plasma sample was continuously incubated at 37 °C, and 50 µ L of the plasma sample was aspirated and added to 150 µ L of ice-cold precipitation agent containing the internal standard at preset sampling time points, followed by thorough vortexing. The collected samples were stored in a freezer at -60 to -90 °C until analysis.
The concentration of the test compound was determined by LC-MS/MS, and its degradation was monitored. (semi-quantitative determination was conducted by comparing the peak area of the analyte to that of the internal standard).

[2] = tested on: dry eye syndrome model New Zealand rabbits; experiment: Dry eye syndrome experiment (benzalkonium chloride model): tear secretion test with phenol red cotton threads; format: in vivo, male New Zealand White rabbits; details: compared with the model group
[3] = molecular target: T1, mineralocorticoid receptor (MR) (Homo sapiens, UniProt P08235); experiment: Assay for agonist activity on mineralocorticoid receptor (luciferase reporter, HEK293 cells transfected with pBIND-MR plasmid); format: cell-based; details: for target selectivity: MR/GR and PR/GR, same experimental conditions
T1 sequence (P08235 726-984): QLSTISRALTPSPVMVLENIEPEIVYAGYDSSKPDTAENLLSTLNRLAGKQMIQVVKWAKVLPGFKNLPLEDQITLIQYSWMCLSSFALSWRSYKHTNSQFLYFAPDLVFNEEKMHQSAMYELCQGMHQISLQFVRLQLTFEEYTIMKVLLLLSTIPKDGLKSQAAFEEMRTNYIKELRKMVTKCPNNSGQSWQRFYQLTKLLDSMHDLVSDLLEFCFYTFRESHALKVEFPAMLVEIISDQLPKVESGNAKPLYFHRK
In short: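 HEK293 cells transiently transfected with pBIND-MR or pBIND-PR, seeded in phenol red-free DMEM with 5% charcoal-stripped serum. Compounds tested as 12-point 4-fold dilutions from 50 µM in duplicate, 0.1% DMSO blank. Luciferase luminescence read, EC50 by nonlinear fit.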

[4] = Pharmacokinetic (PK) experiment in rats; format: in vivo, male SD rats; details: same experimental conditions
Procedure: Pharmacological Example 11. Pharmacokinetic (PK) Experiment in Rats
The solution was prepared before administration.
Animals: 6 male SD rats, SPF grade (Beijing Vital River Laboratory Animal Technology Co., Ltd.).
Animal grouping: The animals were weighed prior to administration, and the dosage was calculated based on body weight. The animals in the oral administration group were fasted overnight (10-14 hours) before administration, and food was reintroduced 4 hours post-administration. Table 23. Animal grouping and drug administration dosages for pharmacokinetic (PK) experiment in rats
Blood collection time points: Blood was collected from the jugular vein at 2 min, 5 min, 15 min, 30 min, 1 h, 2 h, 4 h, 8 h, and 24 h after administration. Approximately 0.25 mL of blood was collected for each sample, anticoagulated with heparin sodium, and then placed on ice immediately.
Plasma sample processing: Blood samples were placed on ice after collection and centrifuged to separate plasma within 1 hour (centrifugation conditions: 6000 rpm, 3 minutes, 2-8 °C ). Plasma samples were stored in a -80°C freezer before analysis.
Data processing: Pharmacokinetic parameters were calculated using Phoenix WinNonlin 8.2.0 based on the plasma drug concentration data at different time points.

| Structure (SMILES) | Effects on airway hyperresponsiveness (Penh values) in mice (asthma model mice) | plasma instability [1] | tear secretion [2] | pEC50 [3] | Target selectivity MR/GR ([3]; ratio of EC50 values) | pharmacokinetic properties (plasma clearance rate, systemic exposure) [4] | target selectivity [3] |
| --- | --- | --- | --- | --- | --- | --- | --- |
| C[C@]12C=CC(=O)C=C1[C@@H](F)C[C@H]1[C@@H]3C[C@H]4OC(c5ccc(CSC6CCOC6=O)cc5)O[C@@]4(C(=O)SCC#N)[C@@]3(C)C[C@H](O)[C@@]12F (stereo partly drawn) [Compound 35, S-(Cyanomethyl) (2S,6aS,6bR,7S,8aS,8bS,11aR,12aS,12bS)-2,6b-difluoro-7-hydroxy-6a,8a-dimethyl-4-oxo-10-(4-( ((2-oxotetrahydrofuran-3-yl)thio)methyl)phenyl)-1,2,4,6a,6b,7,8,8a,11a,12,12a,12b-dodecahydro-8bH-naphtho[2',1':4,5]indeno[1,2-d][1,3]dioxole-8b-carbothioate] | significantly decreased the Penh values in mice | exhibited the characteristic of plasma instability | significantly increased the tear secretion | < 4.30 | > 2.4×10^5 | pharmacokinetic properties similar to those of compound 8 | – |
| C[C@]12C=CC(=O)C=C1CC[C@H]1[C@@H]3C[C@H]4OC(c5ccc(CSC6COC(=O)C6)cc5)O[C@@]4(C(=O)CO)[C@@]3(C)C[C@H](O)[C@@]12Cl (stereo partly drawn) [Compound 26, (6aS,6bR,7S,8aS,8bS,11aR,12aS,12bS)-6b-Chloro-7-hydroxy-8b-(2-hydroxyacetyl)-6a,8a-dimethyl-10-(4-(((5-oxotetrahydrofuran-3-yl)thio)methyl)phenyl)-1,2,6a,6b,7,8,8a,8b,11a,12,12a,12b-do decahydro-4H-naphtho[2',1':4,5]indeno[1,2-d][1,3]dioxol-4-one] | significantly decreased the Penh values in mice | exhibited the characteristic of plasma instability | significantly increased the tear secretion | – | – | pharmacokinetic properties similar to those of compound 8 | target selectivity comparable to that of compound 23 |
| C[C@]12C=CC(=O)C=C1[C@@H](F)C[C@H]1[C@@H]3C[C@H]4OC(c5ccc(CSC6CCOC6=O)cc5)O[C@@]4(C(=O)OCC#N)[C@@]3(C)C[C@H](O)[C@@]12F (stereo partly drawn) [Compound 37, Cyanomethyl (2S,6aS,6bR,7S,8aS,8bS,11aR,12aS,12bS)-2,6b-difluoro-7-hydroxy-6a,8a-dimethyl-4-oxo-10-(4-( ((2-oxotetrahydrofuran-3-yl)thio)methyl)phenyl)-1,2,4,6a,6b,7,8,8a,11a,12,12a,12b-dodecahydro-8bH-naphtho[2',1':4,5]indeno[1,2-d][1,3]dioxole-8b-carboxylate] | significantly decreased the Penh values in mice | exhibited the characteristic of plasma instability | significantly increased the tear secretion | – | – | pharmacokinetic properties similar to those of compound 8 | target selectivity comparable to that of compound 23 |
